# Results from patent publication US20170016019A1, “Plants Having Enhanced Pathogen Resistance and Methods of Modulating Pathogen Resistance in Plants” (The Governing Council of the University of Toronto, priority 2014, published 2017).
# What was measured:
# [1] = test system: PhTTM2A and B; assay: Expression of TTM2 in Petunia after BTH treatment; format: in vivo, Petunia hybrida; settings: 4-5 week old Petunia, 200 uM BTH, 48 hours
# Experimental: (§1) Tomato, Cucumber, Pepper and Petunia plants for BTH treatment were grown in Sunshine Mix at 22° C., 60% relative humidity, and approximately 140 uE m^−2 s^−1 with a 9-h photoperiod. Rice and Brachypodium distachyon plants for BTH treatment were grown in Rice Mix. tomato plants for Pseudomonas infection were grown in Sunshine Mix, at 22° C. 60% relative humidity, and natural light condition.
# FIG. 25 illustrates expression of PhTTM2A and B in approximately 4-5 week old Petunia (Petunia hybrida) 48 hours after BTH (200 uM) treatment. Solution was sprayed with the addition of 0.025% (v/v) Silwet. Expression of both genes was suppressed similar to Arabidopsis TTM2.
# [2] = test system: OsTTM2; assay: Expression of TTM2 in rice after BTH treatment; format: in vivo, Oryza sativa; settings: 4 week old rice, 200 uM BTH, 48 hours
# Experimental: as §1
# (§2) FIG. 26 illustrates expression of OsTTM2 in 4 week old rice (Oryza sativa) plant and BdTTM2 in the model monocotyledonous plant Brachypodium distachyon 48 hours after BTH (200 uM) treatment. Solution was sprayed with the addition of 0.025% (v/v) Silwet. Expression of both genes was suppressed similar to Arabidopsis TTM2.
# [3] = test system: AtTTM2; assay: Quantitative real-time PCR of AtTTM2 expression after SA, BTH or flg22 treatment; format: in vivo, Arabidopsis thaliana
# Experimental: (§3) Arabidopsis (Arabidopsis thaliana accession Columbia), canola (Brassica napus var. Westar), and soybean (Glycine max var. Harasoy) plants were grown in Sunshine Mix at 22° C., 60% relative humidity (RH), and ˜140 μE m^−2 s^−1 with a 9h-photoperiod. 7-10 day-old Arabidopsis plants were infected with Hyaloperonospora arabidopsidis (Hpa). Spore counts of 1×10^5 conidiospores ml^−1, 8×10^5 cells ml^−1, and 2×10^5 cells ml^−1 were used for Noco2, Emco5, and Emwa1 isolates, respectively. Seedlings were then infected via drop inoculation and left at 16° C., >90% RH for 7-10 days before disease assessment. 4-week-old plants were infiltrated with 1×10^5 CFU ml^−1 of the bacterial pathogen, Pseudomonas syringae tomato DC3000 (AvrRps4) and bacterial growth was assessed at 0 and 3 days post infiltration.
# (§4) RNA extraction was carried out using the TRIzol reagent (Life Technologies, Carlsbad, Calif.), according to the manufacturer's instructions. Reverse transcriptase (RT)-PCR was performed using cDNA generated by SuperScript II Reverse Transcriptase (Life Technologies, Carlsbad, Calif.) according to the manufacturer's instructions. Expression of PR1 was visualized by gel electrophoresis of samples after RT-PCR with PR1 primers (AtPR1-F, AtPR1-R).
# (§5) Quantitative real-time PCR was performed using Fast SYBR Green Master Mix (Life Technologies, Carlsbad, Calif.). […]
# [4] = test system: GmTTM2a/b; assay: qPCR of TTM2 orthologues in soybean after BTH treatment; format: in vivo, Glycine max; settings: soybean var. Harasoy, 200 μM BTH, 48hrs
# Experimental: as §3
# (§6) Quantitative real-time PCR was performed using Fast SYBR Green Master Mix (Life Technologies, Carlsbad, Calif.). The expression of Arabidopsis genes were normalized to the expression of AtEF1A (elongation factor1-alpha) while the expression of soybean and canola genes were normalized to GmEF1B (elongation factor1-beta) and BnUBC21 (ubiquitin conjugating enzyme21), respectively.
# (§7) 7- to 10-day old Arabidopsis seedlings were treated with 100 μM SA or 200 μM BTH. […]
# [5] = test system: BnTTM2a, BnTTM2b; assay: qPCR of TTM2 orthologues in canola after BTH treatment; format: in vivo, Brassica napus; settings: canola var. Westar, 200 μM BTH, 48hrs
# Experimental: as §3, §6, §7
# [6] = test system: CaTTM2; assay: Expression of TTM2 in pepper after BTH treatment; format: in vivo, Capsicum annuum; settings: 4-5 week old pepper, 200 uM BTH, 48 hours
# Experimental: as §1
# FIG. 24b illustrates expression of CaTTM2 in approximately 4-5 week old pepper (Capsicum annuum) 48 hours after BTH (200 uM) treatment. Solution was sprayed with the addition of 0.025% (v/v) Silwet. Expression of the gene was suppressed similar to Arabidopsis TTM2.
# [7] = test system: PR1; assay: Quantitative real-time PCR of PR1 gene expression after SA or BTH treatment; format: in vivo, Arabidopsis thaliana; settings: Col wild type
# Experimental: as §3, §4, §5
# [8] = test system: SITTM2A and B; assay: Expression of TTM2 in tomato after BTH treatment; format: in vivo, Solanum lycopersicum; settings: 4-5 week old tomato, 200 μM BTH, 48 hours
# Experimental: as §1
# FIG. 23 illustrates expression of SITTM2A and B in approximately 4-5 week old tomato (Solanum lycopersicum) 48 hours after with and without BTH (200 μM) treatment. Solution was sprayed with the addition of 0.025% (v/v) Silwet. Expression of both genes was suppressed similar to Arabidopsis TTM2.
# [9] = test system: CsTTM2; assay: Expression of TTM2 in cucumber after BTH treatment; format: in vivo, Cucumis sativus; settings: 4-5 week old cucumber, 200 uM BTH, 48 hours
# Experimental: as §1
# FIG. 24a illustrates expression of CsTTM2 in approximately 4-5 week old cucumber (Cucumis sativus) 48 hours after BTH (200 uM) treatment. Solution was sprayed with the addition of 0.025% (v/v) Silwet. Expression of the gene was suppressed similar to Arabidopsis TTM2.
# [10] = test system: BdTTM2; assay: Expression of TTM2 in Brachypodium distachyon after BTH treatment; format: in vivo; settings: 200 uM BTH, 48 hours
# Experimental: as §1, §2
SMILES,Expression of PhTTM2A and B after BTH treatment [1],Expression of OsTTM2 after BTH treatment [2],"AtTTM2 down-regulation after BTH treatment ([3]; Col wild type, 200 μM BTH, 48h)",Expression of GmTTM2a/b in response to BTH [4],"Expression of BnTTM2a, BnTTM2b in response to BTH [5]",Expression of CaTTM2 after BTH treatment [6],"PR1 gene expression after BTH treatment ([7]; 200 μM BTH, 48h)",Expression of SITTM2A and B after BTH treatment [8],Expression of CsTTM2 after BTH treatment [9],Expression of BdTTM2 after BTH treatment [10],"AtTTM2 down-regulation after SA treatment ([3]; Col wild type plants sprayed with 100 μM SA, 24h)","PR1 gene expression after SA treatment ([7]; 100 μM SA, 24h)"
"c1ccc2snnc2c1 [BTH, benzothiadiazole]",suppressed,suppressed,down-regulation was also observed,similarly down-regulated,similarly down-regulated,suppressed,increase in PR1 gene expression,suppressed,suppressed,suppressed,–,–
"O=C(O)c1ccccc1O [SA, salicylic acid]",–,–,–,–,–,–,–,–,–,–,more than 2 fold,increase in PR1 gene expression
